# What was measured:
# IGROV1 = assay: NCI 60 five-dose screening, IGROV1
# Procedure: (§1) The National Cancer Institute's Developmental Therapeutic preclinical 60 human cancer cell lines were used for an in vitro screen. […] The one-dose and five-dose experiments were conducted according to standard NCI protocols.
# (§2) The human tumor cell lines of the cancer screening panel are grown in RPMI 1640 medium containing 5% fetal bovine serum and 2 mM L-glutamine. For a typical screening experiment, cells are inoculated into 96 well microtiter plates in 100 μL at plating densities ranging from 5,000 to 40,000 cells/well depending on the doubling time of individual cell lines. After cell inoculation, the microtiter plates are incubated at 37° C., 5% CO2, 95% air and 100% relative humidity for 24 h prior to addition of experimental drugs.
# (§3) After 24 h, two plates of each cell line are fixed in situ with TCA, to represent a measurement of the cell population for each cell line at the time of drug addition (Tz). […]
# (§4) Following drug addition, the plates are incubated for an additional 48 h at 37° C., 5% CO2, 95% air, and 100% relative humidity. […] Bound stain is subsequently solubilized with 10 mM trizma base, and the absorbance is read on an automated plate reader at a wavelength of 515 nm. […] Using the seven absorbance measurements [time zero, (Tz), control growth, (C), and test growth in the presence of drug at the five concentration levels (Ti)], the percentage growth is calculated at each of the drug concentrations levels. Percentage growth inhibition is calculated as: [(Ti−Tz)/(C−Tz)]×100 for concentrations for which Ti>/=Tz [(Ti−Tz)/Tz]×100 for concentrations for which Ti<Tz.
# (§5) Three dose response parameters are calculated for each experimental agent. […] The drug concentration resulting in total growth inhibition (TGI) is calculated from Ti=Tz. […] Values are calculated for each of these three parameters if the level of activity is reached; however, if the effect is not reached or is exceeded, the value for that parameter is expressed as greater or less than the maximum or minimum concentration tested.
# MOLT-4 = assay: NCI 60 five-dose screening, MOLT-4
# Procedure: as §1, §2, §3, §4, §5
# HOP-62 = assay: NCI 60 five-dose screening, HOP-62
# Procedure: (§6) The one-dose and five-dose experiments were conducted according to standard NCI protocols.
# as §2
# (§7) After 24 h, two plates of each cell line are fixed in situ with TCA, to represent a measurement of the cell population for each cell line at the time of drug addition (Tz). Experimental drugs are solubilized in dimethyl sulfoxide at 400-fold the desired final maximum test concentration and stored frozen prior to use. […]
# as §4, §5
# [1] = tested on: 60 human cancer cell lines; assay: NCI 60 One-Dose Screen; type: cell-based
# From the text: The one-dose assay reported the growth relative to the no-drug control, and relative to the time zero number of cells. This allowed for the detection of both growth inhibition (values between 0 and 100) and lethality (values less than 0). For example, a value of 100 means no growth inhibition. A value of 40 would mean 60% growth inhibition. A value of 0 means no net growth over the course of the experiment. A value of −40 would mean 40% lethality. A value of −100 means all cells are dead.
# MDA-MB-435 = assay: NCI 60 five-dose screening, MDA-MB-435
# Procedure: as §1, §2, §3, §4, §5
# A498 = assay: NCI 60 five-dose screening, A498
# Procedure: as §6, §2, §7, §4, §5
# BT-549 = assay: NCI 60 five-dose screening, BT-549
# Procedure: as §1, §2, §3, §4, §5
# HL-60 (TB) = assay: NCI 60 five-dose screening, HL-60 (TB); type: cell-based, human; settings: HL-60 (TB) (Leukemia), 48 h
# A549/ATCC = assay: NCI 60 five-dose screening, A549/ATCC; type: cell-based, human; settings: A549/ATCC (Non-small cell Lung), 48 h
# NCI-H460 = assay: NCI 60 five-dose screening, NCI-H460
# Procedure: as §1, §2, §3, §4, §5
# PC-3 = assay: NCI 60 five-dose screening, PC-3
# Procedure: as §1, §2, §3, §4, §5
# HOP-92 = assay: NCI 60 five-dose screening, HOP-92
# Procedure: as §6, §2, §7, §4, §5
# NCI/ADR-RES = assay: NCI 60 five-dose screening, NCI/ADR-RES; type: cell-based, human; settings: NCI/ADR-RES (Ovarian Cancer), 48 h
# DU-145 = assay: NCI 60 five-dose screening, DU-145
# Procedure: as §1, §2, §3, §4, §5
# U251 = assay: NCI 60 five-dose screening, U251
# Procedure: as §1, §2, §3, §4, §5
# OVCAR-4 = assay: NCI 60 five-dose screening, OVCAR-4
# Procedure: as §1, §2, §3, §4, §5
# SK-MEL-2 = assay: NCI 60 five-dose screening, SK-MEL-2
# Procedure: as §1, §2, §3, §4, §5
# SW-620 = assay: NCI 60 five-dose screening, SW-620
# Procedure: as §1, §2, §3, §4, §5
# SNB-19 = assay: NCI 60 five-dose screening, SNB-19
# Procedure: as §1, §2, §3, §4, §5
# HCT-116 = assay: NCI 60 five-dose screening, HCT-116
# Procedure: as §1, §2, §3, §4, §5
# RPMI-8226 = assay: NCI 60 five-dose screening, RPMI-8226
# Procedure: as §1, §2, §3, §4, §5
# OVCAR-5 = assay: NCI 60 five-dose screening, OVCAR-5
# Procedure: as §1, §2, §3, §4, §5
# SK-MEL-28 = assay: NCI 60 five-dose screening, SK-MEL-28
# Procedure: as §1, §2, §3, §4, §5
# UACC-257 = assay: NCI 60 five-dose screening, UACC-257
# Procedure: as §1, §2, §3, §4, §5
structure (smiles),measurement,setting,value
"COc1ccc(SC2c3cc(OC)c(OC)cc3Oc3nc(N)c(C#N)c(N)c32)cc1 (stereo not shown) [Compound 1, 2,4-diamino-7,8-dimethoxy-5-((4-methoxyphenyl)thio)-5H-chromeno[2,3-b]pyridine-3-carbonitrile]",GI50,"IGROV1; Homo sapiens, IGROV-1, 48 h",760 nM
same,CC50,"IGROV1; Homo sapiens, IGROV-1, 48 h, read-out: LC50",6420 nM
same,TGI,"IGROV1; IGROV1 (Ovarian Cancer), five-dose, 48 h",2370 nM
same,GI50,"MOLT-4; Homo sapiens, MOLT-4, 48 h",310 nM
same,CC50,"MOLT-4; Homo sapiens, MOLT-4, 48 h, read-out: LC50",> 100000 nM
same,TGI,"MOLT-4; MOLT-4 (Leukemia), five-dose, 48 h",1600 nM
same,TGI,"HOP-62; HOP-62 (Non-small cell Lung), five-dose, 48 h",3090 nM
same,GI50,"HOP-62; Homo sapiens, HOP-62, 48 h",1700 nM
same,CC50,"HOP-62; Homo sapiens, HOP-62, 48 h, read-out: LC50",5610 nM
same,growth inhibition in the One-Dose Screen,[1],significant growth inhibition
same,GI50,"MDA-MB-435; Homo sapiens, MDA-MB-435, 48 h",1500 nM
same,CC50,"MDA-MB-435; Homo sapiens, MDA-MB-435, 48 h, read-out: LC50",5700 nM
same,TGI,"MDA-MB-435; MDA-MB-435 (Melanoma), five-dose, 48 h",2920 nM
same,TGI,"A498; A498 (Renal Cancer), five-dose, 48 h",2850 nM
same,GI50,"A498; Homo sapiens, A498, 48 h",1420 nM
same,CC50,"A498; Homo sapiens, A498, 48 h, read-out: LC50",5730 nM
same,TGI,"BT-549; BT-549 (Breast Cancer), five-dose, 48 h",2190 nM
same,GI50,"BT-549; Homo sapiens, BT-549, 48 h",1020 nM
same,CC50,"BT-549; Homo sapiens, BT-549, 48 h, read-out: LC50",4720 nM
same,TGI,HL-60 (TB),1270 nM
same,GI50,HL-60 (TB); Homo sapiens,340 nM
same,TGI,A549/ATCC,3840 nM
same,GI50,A549/ATCC; Homo sapiens,2010 nM
same,GI50,"NCI-H460; Homo sapiens, NCI-H460, 48 h",1660 nM
same,CC50,"NCI-H460; Homo sapiens, NCI-H460, 48 h, read-out: LC50",> 100000 nM
same,TGI,"NCI-H460; NCI-H460 (Non-small cell Lung), five-dose, 48 h",4380 nM
same,GI50,"PC-3; Homo sapiens, PC-3, 48 h",1160 nM
same,CC50,"PC-3; Homo sapiens, PC-3, 48 h, read-out: LC50",5370 nM
same,TGI,"PC-3; PC-3 (Prostate Cancer), five-dose, 48 h",2490 nM
same,TGI,"HOP-92; HOP-92 (Non-small cell Lung), five-dose, 48 h",2720 nM
same,GI50,"HOP-92; Homo sapiens, HOP-92, 48 h",1240 nM
same,CC50,"HOP-92; Homo sapiens, HOP-92, 48 h, read-out: LC50",5990 nM
same,GI50,NCI/ADR-RES; Homo sapiens,1790 nM
same,TGI,NCI/ADR-RES,3690 nM
same,TGI,"DU-145; DU-145 (Prostate Cancer), five-dose, 48 h",3110 nM
same,GI50,"DU-145; Homo sapiens, DU-145, 48 h",1730 nM
same,CC50,"DU-145; Homo sapiens, DU-145, 48 h, read-out: LC50",5590 nM
same,GI50,"U251; Homo sapiens, U-251, 48 h",950 nM
same,CC50,"U251; Homo sapiens, U-251, 48 h, read-out: LC50",4830 nM
same,TGI,"U251; U251 (CNS Cancer), five-dose, 48 h",2180 nM
same,GI50,"OVCAR-4; Homo sapiens, OVCAR-4, 48 h",1330 nM
same,CC50,"OVCAR-4; Homo sapiens, OVCAR-4, 48 h, read-out: LC50",5590 nM
same,TGI,"OVCAR-4; OVCAR-4 (Ovarian Cancer), five-dose, 48 h",2730 nM
same,GI50,"SK-MEL-2; Homo sapiens, SK-MEL-2, 48 h",1370 nM
same,CC50,"SK-MEL-2; Homo sapiens, SK-MEL-2, 48 h, read-out: LC50",5760 nM
same,TGI,"SK-MEL-2; SK-MEL-2 (Melanoma), five-dose, 48 h",2800 nM
same,GI50,"SW-620; Homo sapiens, SW-620, 48 h",1240 nM
same,CC50,"SW-620; Homo sapiens, SW-620, 48 h, read-out: LC50",8290 nM
same,TGI,"SW-620; SW-620 (Colon Cancer), five-dose, 48 h",3200 nM
same,GI50,"SNB-19; Homo sapiens, SNB-19, 48 h",1320 nM
same,CC50,"SNB-19; Homo sapiens, SNB-19, 48 h, read-out: LC50",5300 nM
same,TGI,"SNB-19; SNB-19 (CNS Cancer), five-dose, 48 h",2640 nM
same,TGI,"HCT-116; HCT-116 (Colon Cancer), five-dose, 48 h",2160 nM
same,GI50,"HCT-116; Homo sapiens, HCT-116, 48 h",680 nM
same,CC50,"HCT-116; Homo sapiens, HCT-116, 48 h, read-out: LC50",5340 nM
same,GI50,"RPMI-8226; Homo sapiens, RPMI-8226, 48 h",350 nM
same,CC50,"RPMI-8226; Homo sapiens, RPMI-8226, 48 h, read-out: LC50",> 100000 nM
same,TGI,"RPMI-8226; RPMI-8226 (Leukemia), five-dose, 48 h",1810 nM
same,GI50,"OVCAR-5; Homo sapiens, OVCAR-5, 48 h",1750 nM
same,CC50,"OVCAR-5; Homo sapiens, OVCAR-5, 48 h, read-out: LC50",6660 nM
same,TGI,"OVCAR-5; OVCAR-5 (Ovarian Cancer), five-dose, 48 h",3390 nM
same,GI50,"SK-MEL-28; Homo sapiens, SK-MEL-28, 48 h",1470 nM
same,CC50,"SK-MEL-28; Homo sapiens, SK-MEL-28, 48 h, read-out: LC50",5780 nM
same,TGI,"SK-MEL-28; SK-MEL-28 (Melanoma), five-dose, 48 h",2910 nM
same,GI50,"UACC-257; Homo sapiens, UACC-257, 48 h",1870 nM
same,CC50,"UACC-257; Homo sapiens, UACC-257, 48 h, read-out: LC50",5900 nM
same,TGI,"UACC-257; UACC-257 (Melanoma), five-dose, 48 h",3320 nM
